For the assay, the target named is T1, Phospho-N-acetylmuramoyl-pentapeptide-transferase (Bacillus subtilis (strain 168), UniProt Q03521).
T1 sequence (Q03521 whole entry): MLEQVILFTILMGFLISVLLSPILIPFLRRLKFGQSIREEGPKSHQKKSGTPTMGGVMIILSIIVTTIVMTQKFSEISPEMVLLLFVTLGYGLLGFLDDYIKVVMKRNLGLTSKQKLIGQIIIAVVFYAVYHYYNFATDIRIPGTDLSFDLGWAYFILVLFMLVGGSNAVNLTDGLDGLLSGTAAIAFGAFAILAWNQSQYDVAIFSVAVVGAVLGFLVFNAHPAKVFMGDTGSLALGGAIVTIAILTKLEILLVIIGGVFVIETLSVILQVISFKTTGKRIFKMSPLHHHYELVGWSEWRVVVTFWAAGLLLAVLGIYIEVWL
Put plainly: Inhibition of Bacillus subtilis MraY.

The structures appear in SMILES notation.

For the compound `NC[C@H]1O[C@@H](O[C@@H](Cn2cc(CCCCCO)nn2)[C@H]2O[C@@H](n3ccc(=O)[nH]c3=O)[C@H](O)[C@@H]2O)[C@H](O)[C@@H]1O`, the IC50 (commonly the concentration that gives 50% inhibition) came out at 400 nM.

Values taken from BindingDB's records for PubMed 27021004 (University of Warwick, 2016).
